Experiments:
[1] = target: rSERT (Rattus norvegicus, UniProt P31652); assay: TR_rSERT serotonin transporter binding
[2] = target: gDAT; assay: TR_gDAT dopamine transporter binding; design: species or system guinea pig; details: LCT ∼[…] for non-CYPs; value = assay target as listed
[3] = target: bGABARa5; assay: LGIC_bGABARa5 binding; design: species or system bovine; details: LCT ∼[…] for non-CYPs; value = assay target as listed
[4] = target: rNNR_BungSens (Rattus norvegicus, UniProt Q05941); assay: LGIC_rNNR_BungSens binding; details: LCT ∼[…] for non-CYPs; value = assay target as listed
[5] = target: hETA (Homo sapiens, UniProt P25101); assay: GPCR_hETA binding; details: LCT ∼[…] for non-CYPs; value = assay target as listed
[6] = target: hAdrb2 (Homo sapiens, UniProt P07550); assay: GPCR_hAdrb2 binding; details: LCT ∼[…] for non-CYPs; value = assay target as listed
[7] = target: hCYP4F12 (Homo sapiens, UniProt Q9HCS2); assay: ADME_hCYP4F12_Activator; format: in vitro ADME; details: activator assay; LCT ∼0.009 μM for CYPs; value = assay target as listed
[8] = target: mCCKAPeripheral (Mus musculus, UniProt O08786); format: binding
[9] = system: gSIGMA_NonSelective; format: binding, guinea pig; details: LCT ∼[…] for non-CYPs; value = assay target as listed
[10] = target: r5HT_NonSelective; assay: GPCR_r5HT_NonSelective binding; design: species or system rat; details: LCT ∼[…] for non-CYPs; value = assay target as listed
[11] = target: h5HT7 (Homo sapiens, UniProt P34969); assay: GPCR_h5HT7 binding; details: LCT ∼[…] for non-CYPs; value = assay target as listed
[12] = target: hDRD4.4 (Homo sapiens, UniProt P21917); format: binding; details: LCT ∼[…] for non-CYPs; value = assay target as listed
[13] = target: hDRD1 (Homo sapiens, UniProt P21728); format: binding; details: LCT ∼[…] for non-CYPs; value = assay target as listed
[14] = target: h5HT2A (Homo sapiens, UniProt P28223); format: binding; details: LCT ∼[…] for non-CYPs; value = assay target as listed
[15] = system: p5HT2C; format: binding, boar; details: LCT ∼[…] for non-CYPs; value = assay target as listed
[16] = target: hNTS (Homo sapiens, UniProt P30989); assay: GPCR_hNTS binding; details: LCT ∼[…] for non-CYPs; value = assay target as listed
[17] = system: kinases and phosphatases; assay: kinase and phosphatase assays taken together; format: biochemical
[18] = target: hDUSP3 (Homo sapiens, UniProt P51452); assay: ENZ_hDUSP3 phosphatase inhibition; format: biochemical; details: LCT ∼[…] for non-CYPs; value = assay target as listed
Sequence of hDUSP3 (P51452 whole entry): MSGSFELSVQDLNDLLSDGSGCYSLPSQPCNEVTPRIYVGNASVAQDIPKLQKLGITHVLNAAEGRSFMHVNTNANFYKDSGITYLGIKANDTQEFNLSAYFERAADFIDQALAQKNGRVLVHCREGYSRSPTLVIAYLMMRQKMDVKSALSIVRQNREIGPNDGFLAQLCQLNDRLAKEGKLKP

Sequence of hNTS (P30989 whole entry): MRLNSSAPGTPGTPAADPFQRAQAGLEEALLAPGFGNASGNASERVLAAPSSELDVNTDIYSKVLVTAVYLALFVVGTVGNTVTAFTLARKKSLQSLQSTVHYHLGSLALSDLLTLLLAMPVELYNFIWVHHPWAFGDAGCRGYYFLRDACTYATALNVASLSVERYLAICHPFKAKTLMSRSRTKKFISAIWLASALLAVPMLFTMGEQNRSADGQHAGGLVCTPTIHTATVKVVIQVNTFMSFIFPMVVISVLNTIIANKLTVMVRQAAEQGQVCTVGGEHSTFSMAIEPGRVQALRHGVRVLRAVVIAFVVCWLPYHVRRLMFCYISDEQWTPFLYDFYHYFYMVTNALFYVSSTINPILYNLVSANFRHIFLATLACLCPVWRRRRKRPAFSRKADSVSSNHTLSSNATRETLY
Sequence of rSERT (P31652 whole entry): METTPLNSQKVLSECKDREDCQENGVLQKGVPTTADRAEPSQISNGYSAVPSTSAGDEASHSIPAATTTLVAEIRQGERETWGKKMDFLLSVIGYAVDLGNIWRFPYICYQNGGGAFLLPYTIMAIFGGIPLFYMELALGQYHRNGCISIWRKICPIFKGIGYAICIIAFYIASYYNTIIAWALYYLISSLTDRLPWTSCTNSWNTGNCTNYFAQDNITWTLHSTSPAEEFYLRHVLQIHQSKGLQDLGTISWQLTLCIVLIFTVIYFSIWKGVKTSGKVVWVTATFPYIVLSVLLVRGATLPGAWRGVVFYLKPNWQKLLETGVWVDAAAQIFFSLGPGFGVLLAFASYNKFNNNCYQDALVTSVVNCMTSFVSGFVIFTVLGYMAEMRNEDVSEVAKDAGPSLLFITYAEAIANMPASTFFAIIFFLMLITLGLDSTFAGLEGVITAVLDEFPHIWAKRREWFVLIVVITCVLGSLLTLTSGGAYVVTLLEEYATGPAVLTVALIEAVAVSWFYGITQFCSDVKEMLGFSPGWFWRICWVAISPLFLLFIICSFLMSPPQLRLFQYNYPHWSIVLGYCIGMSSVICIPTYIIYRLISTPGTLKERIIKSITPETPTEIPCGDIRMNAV
Sequence of mCCKAPeripheral (O08786 whole entry): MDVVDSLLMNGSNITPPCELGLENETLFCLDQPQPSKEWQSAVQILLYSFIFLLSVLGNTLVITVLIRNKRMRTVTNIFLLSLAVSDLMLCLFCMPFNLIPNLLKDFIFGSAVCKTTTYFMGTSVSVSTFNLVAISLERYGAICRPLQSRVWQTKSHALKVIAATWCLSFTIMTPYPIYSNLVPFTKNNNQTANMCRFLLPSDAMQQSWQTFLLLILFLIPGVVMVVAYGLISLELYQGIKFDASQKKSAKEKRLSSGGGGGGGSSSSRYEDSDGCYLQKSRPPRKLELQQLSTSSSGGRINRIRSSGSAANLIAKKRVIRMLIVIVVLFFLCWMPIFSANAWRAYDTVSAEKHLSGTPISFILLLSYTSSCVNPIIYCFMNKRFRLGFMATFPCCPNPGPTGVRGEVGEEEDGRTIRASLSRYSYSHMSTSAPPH
Sequence of h5HT7 (P34969 whole entry): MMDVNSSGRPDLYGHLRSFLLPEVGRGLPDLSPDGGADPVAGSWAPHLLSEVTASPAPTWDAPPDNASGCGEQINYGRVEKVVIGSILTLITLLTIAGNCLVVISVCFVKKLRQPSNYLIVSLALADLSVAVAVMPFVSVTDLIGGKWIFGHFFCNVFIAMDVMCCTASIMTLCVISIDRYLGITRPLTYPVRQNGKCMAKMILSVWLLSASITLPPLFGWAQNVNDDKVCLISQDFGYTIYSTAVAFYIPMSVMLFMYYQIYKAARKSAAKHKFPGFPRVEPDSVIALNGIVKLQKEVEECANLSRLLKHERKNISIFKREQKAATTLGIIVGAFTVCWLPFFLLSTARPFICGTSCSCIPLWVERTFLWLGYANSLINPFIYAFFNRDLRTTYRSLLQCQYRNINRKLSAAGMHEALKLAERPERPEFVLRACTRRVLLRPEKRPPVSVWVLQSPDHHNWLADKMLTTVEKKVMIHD
Sequence of hAdrb2 (P07550 whole entry): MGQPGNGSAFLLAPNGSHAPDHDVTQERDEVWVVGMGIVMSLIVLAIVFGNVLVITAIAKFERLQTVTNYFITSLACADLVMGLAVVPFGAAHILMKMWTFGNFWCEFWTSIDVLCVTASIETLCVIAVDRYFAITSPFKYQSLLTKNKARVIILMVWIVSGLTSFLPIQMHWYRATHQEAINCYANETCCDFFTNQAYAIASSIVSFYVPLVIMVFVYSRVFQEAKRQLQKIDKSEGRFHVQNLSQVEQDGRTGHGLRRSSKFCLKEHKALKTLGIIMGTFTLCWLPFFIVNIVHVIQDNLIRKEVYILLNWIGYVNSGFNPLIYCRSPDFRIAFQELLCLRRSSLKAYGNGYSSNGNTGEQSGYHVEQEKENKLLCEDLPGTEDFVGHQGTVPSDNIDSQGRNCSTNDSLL
Sequence of hDRD4.4 (P21917 whole entry): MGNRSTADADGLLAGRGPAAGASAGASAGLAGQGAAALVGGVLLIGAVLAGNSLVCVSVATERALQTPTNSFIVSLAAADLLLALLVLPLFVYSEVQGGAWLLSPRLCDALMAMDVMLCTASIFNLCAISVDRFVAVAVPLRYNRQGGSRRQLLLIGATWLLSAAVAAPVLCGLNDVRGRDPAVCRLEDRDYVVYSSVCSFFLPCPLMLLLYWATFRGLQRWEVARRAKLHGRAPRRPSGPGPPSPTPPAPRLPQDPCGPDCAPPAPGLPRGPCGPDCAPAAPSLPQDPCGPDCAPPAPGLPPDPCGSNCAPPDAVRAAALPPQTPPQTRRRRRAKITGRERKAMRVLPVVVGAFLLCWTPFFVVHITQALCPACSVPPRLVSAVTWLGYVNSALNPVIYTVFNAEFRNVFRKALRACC
Sequence of hCYP4F12 (Q9HCS2 whole entry): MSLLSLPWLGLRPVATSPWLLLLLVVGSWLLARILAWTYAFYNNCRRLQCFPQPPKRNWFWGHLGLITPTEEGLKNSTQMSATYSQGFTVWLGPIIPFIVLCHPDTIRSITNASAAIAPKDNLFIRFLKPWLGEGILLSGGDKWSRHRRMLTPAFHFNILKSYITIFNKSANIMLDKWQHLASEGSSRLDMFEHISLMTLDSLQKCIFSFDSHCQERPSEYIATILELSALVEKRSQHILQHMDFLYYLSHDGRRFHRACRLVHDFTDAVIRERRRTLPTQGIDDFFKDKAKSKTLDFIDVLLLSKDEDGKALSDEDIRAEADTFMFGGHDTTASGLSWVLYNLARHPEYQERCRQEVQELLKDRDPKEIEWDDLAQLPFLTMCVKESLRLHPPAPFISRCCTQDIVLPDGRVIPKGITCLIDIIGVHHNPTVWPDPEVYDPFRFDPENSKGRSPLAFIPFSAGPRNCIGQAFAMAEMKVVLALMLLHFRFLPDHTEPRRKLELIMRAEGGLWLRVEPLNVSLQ
Sequence of hDRD1 (P21728 whole entry): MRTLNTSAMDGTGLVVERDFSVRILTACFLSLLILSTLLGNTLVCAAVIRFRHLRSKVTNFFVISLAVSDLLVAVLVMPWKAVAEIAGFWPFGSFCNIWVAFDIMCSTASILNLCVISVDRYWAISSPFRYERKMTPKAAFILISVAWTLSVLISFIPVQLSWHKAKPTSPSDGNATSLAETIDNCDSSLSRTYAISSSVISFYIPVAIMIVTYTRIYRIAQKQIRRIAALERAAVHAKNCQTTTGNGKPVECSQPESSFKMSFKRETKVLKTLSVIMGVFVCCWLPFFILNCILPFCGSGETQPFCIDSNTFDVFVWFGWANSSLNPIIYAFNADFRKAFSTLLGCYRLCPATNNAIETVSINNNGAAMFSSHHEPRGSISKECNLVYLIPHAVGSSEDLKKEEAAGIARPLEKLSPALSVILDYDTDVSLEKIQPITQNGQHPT
Sequence of h5HT2A (P28223 whole entry): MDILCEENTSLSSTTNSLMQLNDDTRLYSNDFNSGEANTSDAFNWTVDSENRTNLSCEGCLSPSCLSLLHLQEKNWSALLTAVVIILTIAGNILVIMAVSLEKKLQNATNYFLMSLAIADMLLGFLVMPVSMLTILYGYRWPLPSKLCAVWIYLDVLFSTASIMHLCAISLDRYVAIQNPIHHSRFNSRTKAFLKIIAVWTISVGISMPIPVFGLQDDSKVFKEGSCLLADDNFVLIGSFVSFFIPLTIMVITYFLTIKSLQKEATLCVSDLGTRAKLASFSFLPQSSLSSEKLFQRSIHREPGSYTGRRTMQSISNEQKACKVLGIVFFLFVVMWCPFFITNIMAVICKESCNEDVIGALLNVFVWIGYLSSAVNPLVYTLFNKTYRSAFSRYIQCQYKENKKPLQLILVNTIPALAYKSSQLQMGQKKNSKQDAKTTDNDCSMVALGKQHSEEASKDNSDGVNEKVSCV
Sequence of hETA (P25101 21-427): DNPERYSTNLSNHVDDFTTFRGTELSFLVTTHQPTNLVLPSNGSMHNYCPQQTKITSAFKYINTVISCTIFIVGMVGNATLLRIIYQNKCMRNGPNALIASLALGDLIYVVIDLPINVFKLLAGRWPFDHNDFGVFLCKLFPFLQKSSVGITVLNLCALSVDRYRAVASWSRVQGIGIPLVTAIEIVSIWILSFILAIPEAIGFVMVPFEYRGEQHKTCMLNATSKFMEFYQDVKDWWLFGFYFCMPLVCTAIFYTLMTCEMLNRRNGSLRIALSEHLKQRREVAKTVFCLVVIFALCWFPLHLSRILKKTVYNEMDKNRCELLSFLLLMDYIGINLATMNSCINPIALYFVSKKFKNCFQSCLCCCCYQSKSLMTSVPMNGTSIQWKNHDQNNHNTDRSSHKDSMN

## CNCc1cc(F)ccc1Oc1ccc(Cl)c(Cl)c1 [1-[2-(3,4-dichlorophenoxy)-5-fluorophenyl]-N-methylmethanamine]
[1]
  AC50 at the lowest concentration tested (LCT): TR_rSERT

## CS(=O)(=O)O.Cc1nccn1-c1ccc(Sc2cccc(C3(C(N)=O)CCOCC3)c2)cc1 [4-(3-{[4-(2-methyl-1H-imidazol-1-yl)phenyl]sulfanyl}phenyl)tetrahydro-2H-pyran-4-carboxamide methanesulfonate]
[2]
  AC50 at the lowest concentration tested (LCT): TR_gDAT

## CCOc1cccc(-n2cc(C(=O)N3CCN(c4cc(C(=O)[O-])c5ccccc5c4)CC3)nc2-c2ccc(C)cc2)c1.[Na+] [CP-457920 pharma]
[3]
  AC50 at the lowest concentration tested (LCT): LGIC_bGABARa5

## O=C(N[C@H]1CN2CCC1CC2)c1cc2ccoc2cn1 [PHA-00543613 pharma]
[4]
  AC50 at the lowest concentration tested (LCT): LGIC_rNNR_BungSens

## CCCCc1ccc2c(n1)[C@@H](c1ccc(OC)cc1C[C@H](C)C(=O)[O-])[C@H](C(=O)[O-])[C@H]2c1ccc2c(c1)OCO2.[Na+].[Na+] [disodium (5S,6R,7R)-5-(1,3-benzodioxol-5-yl)-2-butyl-7-{2-[(2S)-2-carboxylatopropyl]-4-methoxyphenyl}-6,7-dihydro-5H-cyclopenta[b]pyridine-6-carboxylate]
[5]
  AC50 at the lowest concentration tested (LCT): GPCR_hETA

## CN1CCN(c2ccccc2/C=C2\SCCN(c3ccc(Cl)c(Cl)c3)C2=O)CC1 [elzasonan (CP-448187 pharma), elzasonan]
[6]
  AC50 at the lowest concentration tested (LCT): GPCR_hAdrb2

## CCOC(=O)COc1cc(-n2ncc(C(F)(F)F)c(C)c2=O)c(F)cc1Cl [flufenpyr-ethyl]
[7]
  AC50 at the lowest concentration tested (LCT): ADME_hCYP4F12_Activator

## CCOc1cccc(-n2cc(C(=O)N3CCN(c4cc(C(=O)[O-])c5ccccc5c4)CC3)nc2-c2ccc(C)cc2)c1.[Na+] [sodium 3-(4-{[1-(3-ethoxyphenyl)-2-(4-methylphenyl)-1H-imida] [sodium 3-(4-{[1-(3-ethoxyphenyl)-2-(4-methylphenyl)-1H-imidazol-4-yl]carbonyl}piperazin-1-yl)naphthalene-1-carboxylate]
[8]
  AC50 at the lowest concentration tested (LCT): GPCR_mCCKAPeripheral

## CCCN(CC)CC1COC2(CCC(C(C)(C)C)CC2)O1 (stereo not drawn) [spiroxamine]
[9]
  AC50 at the lowest concentration tested (LCT): OR_gSIGMA_NonSelective

## NC(=O)Cn1c(=O)cc(CCN2CCN(c3nccc4sccc34)CC2)c2ccc(F)cc21 [trelanserin (SL650472 pharma), trelanserin]
[10]
  AC50 at the lowest concentration tested (LCT): r5HT_NonSelective
[11]
  AC50 at the lowest concentration tested (LCT): GPCR_h5HT2A/7
[12]
  AC50 at the lowest concentration tested (LCT): GPCR_hDRD1/4.4
[13]
  AC50 at the lowest concentration tested (LCT): GPCR_hDRD1
[14]
  AC50 at the lowest concentration tested (LCT): GPCR_h5HT2A
[15]
  AC50 at the lowest concentration tested (LCT): p5HT2C

## emamectin benzoate
[16]
  AC50 at the lowest concentration tested (LCT): GPCR_hNTS

## mancozeb
[17]
  effect on kinase and phosphatase assays, in words: affected multiple kinase and phosphatase assays
[18]
  AC50 at the lowest concentration tested (LCT): ENZ_hDUSP3
